The text below walks through data of patent US20030027819A1, “Beta-sheet mimetics and methods relating to the use thereof” (Molecumetics Ltd., priority 1996, published 2003).

Several values for one entry are separate records, joined by “and”; a condition that tells them apart may be missing. Equal values may be shown once.

Broadly, the kcat is the maximal rate divided by the concentration of active sites. Usually IC50 stands for the midpoint of a concentration-inhibition curve. Usually Ki stands for the dissociation constant of the complex between target and ligand, obtained from inhibition or displacement.

For experiment [1], the target named is T1, human Factor VIIa (FVIIa) and human tissue factor (TF) (Homo sapiens, UniProt P08709).
T1 construct: 10 μl of 20 μM human Factor VIIa (FVIIa)
T1 sequence (P08709 213-466 limits assumed): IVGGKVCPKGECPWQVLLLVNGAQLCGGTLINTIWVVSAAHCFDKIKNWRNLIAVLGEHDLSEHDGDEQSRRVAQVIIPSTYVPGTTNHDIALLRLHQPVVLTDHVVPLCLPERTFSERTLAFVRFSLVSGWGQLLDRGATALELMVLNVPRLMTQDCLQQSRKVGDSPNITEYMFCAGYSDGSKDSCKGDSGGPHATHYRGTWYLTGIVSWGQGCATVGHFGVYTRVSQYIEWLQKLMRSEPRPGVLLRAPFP
T1 sequence (P08709 61-212 limits assumed): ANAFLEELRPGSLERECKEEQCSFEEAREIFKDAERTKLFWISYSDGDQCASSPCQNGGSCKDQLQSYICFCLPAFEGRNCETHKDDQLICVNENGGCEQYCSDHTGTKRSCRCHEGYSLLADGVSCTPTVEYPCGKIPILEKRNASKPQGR
T1 sequence (P13726 33-295 partner): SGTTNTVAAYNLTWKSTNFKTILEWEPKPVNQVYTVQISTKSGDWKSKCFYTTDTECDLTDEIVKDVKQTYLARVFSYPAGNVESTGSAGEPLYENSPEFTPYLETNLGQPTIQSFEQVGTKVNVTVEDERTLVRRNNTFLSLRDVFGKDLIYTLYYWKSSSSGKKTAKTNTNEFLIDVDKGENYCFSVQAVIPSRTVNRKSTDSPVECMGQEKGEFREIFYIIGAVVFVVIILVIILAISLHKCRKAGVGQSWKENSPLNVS
Briefly: Factor VII assay, hydrolysis of structure (11b) as proteolytic substrate. The class given is biochemical. Particulars: ratio of kcat/KM. As for the experimental part: (§1) Both the thrombin and Factor VII assays of this experiment were carried out at 37° C. using a Hitachi UV/Vis spectrophotometer (model U-3000). Structure (11b) was dissolved in deionized water. The concentration was determined from the absorbance at 342 nm. […] Initial velocities were calculated from the initial linear portion of the reaction progress curve. Kinetic parameters were determined by unweighted nonlinear least-squares fitting of the simple Michaelis-Menten equation to the experimental data using GraFit (Version 3.0, Erithacus Software Limited).
For the Factor VII assay, pH 8.0 Tris buffer (0.05 M Tris, 5 mM CaCl2, 0.15 M NaCl, 0.1% TWEEN 20, 0.1% BSA) was used. 10 μl of 20 μM human Factor VIIa (FVIIa) and 22 μM of human tissue factor (TF) was brought to assay buffer to make 160 nM FVIIa and TF solutions, respectively. […] The initial 3 minutes reaction progress curves were recorded. […] The kcat/KM was calculated from the slope and found to be 17,500 M^−1s^−1.
(§2) In both the thrombin and Factor VII assay of this experiment, (D)FPR-PNA was run as a control.

Another experiment deals with T2, bovine thrombin (Bos taurus, UniProt P00735).
T2 construct: 6.4 NIH units of bovine thrombin (from Sigma); purchased Sigma
Briefly: Thrombin assay, hydrolysis of structure (11b) as proteolytic substrate. It counts as biochemical. As for the experimental part: as §1
For the thrombin assay, experiments were performed in pH 8.4 Tris buffer (Tris, 0.05M; NaCl, 0.15M). 6.4 NIH units of bovine thrombin (from Sigma) were dissolved into 10 ml of the assay buffer to yield 10 nM thrombin solution. […] The first two minutes of the reactions were recorded for initial velocity determination.
as §2

In another experiment the target is T3, FVIIa and TF complex (Homo sapiens, UniProt P08709).
T3 construct: 50 μl of 16 nM FVIIa and TF complex solution
T3 sequence (P08709 213-466 limits assumed): as the sequence (P08709 213-466 limits assumed) above
T3 sequence (P08709 61-212 limits assumed): as the sequence (P08709 61-212 limits assumed) above
T3 sequence (P13726 33-295 partner): as the sequence (P13726 33-295 partner) above
As to the kind of experiment: Factor VII inhibition assay (IC50, Example 4). The class given is biochemical. As for the experimental part: (§3) This solution (2.05 mM) served as the stock solution for all the inhibition assays. The hydrolysis of chromogenic substrates was monitored at 405 nm. The reaction progress curves were recorded by reading the plates typically 90 times with 30 seconds to 2 minute intervals. The initial rate were determined by unweighted nonlinear least-squares fitting to a first order reaction in GraFit.
In the Factor VII assay, S-2288 (from Pharmacia), D-Ile-Pro-Arg-pNA was used at […] in deionized water as substrate. […] This dilution served as the first point of the inhibitor (20 μM). From this concentration point 6 more sequential dilutions were made with a dilution factor of 2. 50 μl of 16 nM FVIIa and TF complex solution and 40 μl of the inhibitor solutions were added into each well, the mixtures were incubated for 20 minutes before 10 μl of 20 mM S-2288 was added.

In another experiment the target is T4, bovine trypsin (Bos taurus, UniProt P00760).
T4 construct: purchased Sigma
T4 sequence (P00760 24-246): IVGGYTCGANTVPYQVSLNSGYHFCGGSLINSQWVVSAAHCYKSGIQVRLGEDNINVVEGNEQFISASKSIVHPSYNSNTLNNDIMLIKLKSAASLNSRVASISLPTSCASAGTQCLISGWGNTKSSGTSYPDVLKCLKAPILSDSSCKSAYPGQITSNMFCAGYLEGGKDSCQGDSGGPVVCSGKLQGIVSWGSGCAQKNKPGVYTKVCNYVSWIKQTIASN
Briefly: Trypsin inhibition assay (IC50, Example 4). It counts as biochemical. As for the experimental part:
as §3
In the trypsin assay, pH 7.8 Tris (0.10 M Tris and 0.02 M CaCl2) was utilized as the buffer. BAPNA (from Sigma) was used at 1 mg/ml in 1% DMSO (v/v) deionized water solution as substrate. The same dilutions of structure (13b) were made as for Factor VII assay.

The next experiment relates to control plasma. As to the kind of experiment: Prothrombin time (PT) in control plasma. The class given is biochemical. As for the experimental part: Then 200 μl of prewarmed (at 37° C. for ˜10 minutes) thromboplastin with calcium (from Sigma) was rapidly added into the plasma sample.
Another experiment concerns the target T5, bovine factor Xa (Bos taurus, UniProt P00743).
T5 construct: 25 nM of bovine factor Xa (from Sigma); purchased Sigma
Briefly: Factor X inhibition assay (IC50, Example 4). It counts as biochemical. As for the experimental part: as §3
In the Factor X assay, buffer and substrate are the same as used for thrombin assay. A 1:100 dilution was made into pH 8.4 Tris buffer to serve as the first point. Seven dilutions with a dilution factor of 2 were made. The assay protocol is the same as for thrombin except 25 nM of bovine factor Xa (from Sigma) in pH 8.4 Tris buffer was used instead of thrombin.

For experiment [2], the target named is T6, Tissue Plasminogen Activator (t-PA) (Homo sapiens, UniProt P00750). As to the kind of experiment: Tissue plasminogen activator inhibition assay (IC50, Example 4). The class given is biochemical. As for the experimental part:
as §3
Buffer, substrate and the dilution scheme of structure (13b) were the same as utilized for Factor VII assay.

In experiment [3] the target is T7, urokinase (Homo sapiens, UniProt P00749). As to the kind of experiment: Urokinase inhibition assay (IC50, Example 4). It counts as biochemical. Further details: purchased Sigma. As for the experimental part: as §3
In the urokinase assay, buffer was pH 8.8 0.05 M Tris and 0.05 M NaCl in deionized water. S-2444 (from Sigma), pyroGlu-Gly-Arg-pNA at 0.5 mM in water was utilized as substrate. The same dilution procedure was used as for Factor VII and Factor X. Assay protocol is the same as for thrombin except 18.5 nM of human urokinase (from Sigma) was utilized.

Experiment [4] has as its target T8, Plasmin (Bos taurus, UniProt P06868). Briefly: Plasmin inhibition assay (IC50, Example 4). The class given is biochemical. As for the experimental part: as §3
For dilutions of structure (13b) (see urokinase assay).

Another experiment deals with Factor XI (Homo sapiens, UniProt P03951). As to the kind of experiment: Factor XI inhibition assay (Ki, Example 8). The class given is biochemical. As for the experimental part:
(§4) The reaction progress curves were recorded by reading the plates, typically 60 times with 30 second to 2 minute intervals. Initial rates were determined by unweighted nonlinear least-squares fitting to a first order reaction in GraFit (Erithacus Software Limited, London, England).
Factor XI. The same buffer was utilized in this assay as in the thrombin assay. […] From this 100 μM solution, seven serial 1:5 dilutions were made in buffer for assay.

A further experiment concerns the target T9, trypsin (Bos taurus, UniProt P00760).
T9 sequence (P00760 24-246): T4 sequence (P00760 24-246)
As to the kind of experiment: Trypsin inhibition assay (Ki, Example 5). It counts as biochemical, bovine. As for the experimental part:
as §4

For experiment [5], the target named is T7, urokinase. As to the kind of experiment: Urokinase inhibition assay (Ki, Example 5). It counts as biochemical.
For another experiment, the target named is factor X (Bos taurus, UniProt P00743). Briefly: Factor X inhibition assay (Ki, Example 5), bovine plasma enzyme. It counts as biochemical. To be noted: bovine plasma enzyme (Example 5 protocol). As for the experimental part: The hydrolysis of chromogenic substrates was monitored at 405 nm. The reaction progress curves were recorded by reading the plates, typically 60 times with 30 second to 2 minute intervals. Initial rates were determined by unweighted nonlinear least-squares fitting to a first order reaction in GraFit (Erithacus Software Limited, London, England).
Sequence of factor X (P00743 234-492 limits assumed): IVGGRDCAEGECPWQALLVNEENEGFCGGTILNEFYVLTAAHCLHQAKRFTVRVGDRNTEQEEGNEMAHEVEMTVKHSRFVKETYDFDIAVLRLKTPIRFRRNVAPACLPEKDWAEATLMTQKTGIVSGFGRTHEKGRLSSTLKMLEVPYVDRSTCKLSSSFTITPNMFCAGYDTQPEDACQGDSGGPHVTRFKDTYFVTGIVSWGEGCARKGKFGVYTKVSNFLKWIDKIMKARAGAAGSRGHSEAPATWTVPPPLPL
Sequence of factor X (P00743 41-180 limits assumed): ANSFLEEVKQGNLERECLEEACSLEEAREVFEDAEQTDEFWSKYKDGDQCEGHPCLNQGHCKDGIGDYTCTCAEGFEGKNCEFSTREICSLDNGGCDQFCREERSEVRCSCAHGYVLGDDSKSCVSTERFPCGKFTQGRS
Buffer and substrate were the same as used for thrombin assay. A 1:100 dilution was made in the pH8.0 tris buffer to serve as the first point. Seven more dilutions from the first were made for the assay.

The target of a further experiment is factor VII (Homo sapiens, UniProt P08709). Briefly: Factor VII inhibition assay (Ki, Example 5). The class given is biochemical. As for the experimental part:
as §4
From this concentration point seven more sequential dilutions were made for the assay.

Experiment [6] has as its target T8, Plasmin. Briefly: Plasmin inhibition assay (Ki, Example 5). The class given is biochemical, bovine. As for the experimental part: as §4
Another experiment concerns the target tryptase (Homo sapiens, UniProt Q15661). Briefly: Tryptase inhibition assay (Ki, Example 5). It counts as biochemical.
The target in another experiment is thrombin (Bos taurus, UniProt P00735). Briefly: Thrombin inhibition assay (Ki, Example 5). More on the design: thrombin; bovine plasma; 0.66; from tissue; host or cells: bovine plasma. The class given is biochemical, bovine. As for the experimental part:
as §4
Seven sequential dilutions were made from the first point for the assay.

In experiment [7] the target is Activated Protein C (aPC) (Homo sapiens, UniProt P04070). As to the kind of experiment: Activated Protein C inhibition assay (Ki, Example 5). The class given is biochemical.
Sequence of Activated Protein C (aPC) (P04070 212-461 limits assumed): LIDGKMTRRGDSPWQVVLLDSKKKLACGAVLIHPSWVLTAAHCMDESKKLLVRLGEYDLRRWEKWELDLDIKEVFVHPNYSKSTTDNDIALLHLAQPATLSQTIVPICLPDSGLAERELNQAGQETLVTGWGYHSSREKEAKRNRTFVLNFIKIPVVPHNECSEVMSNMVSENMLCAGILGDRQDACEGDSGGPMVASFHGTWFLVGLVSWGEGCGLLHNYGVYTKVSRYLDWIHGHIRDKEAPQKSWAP
Sequence of Activated Protein C (aPC) (P04070 43-197 limits assumed): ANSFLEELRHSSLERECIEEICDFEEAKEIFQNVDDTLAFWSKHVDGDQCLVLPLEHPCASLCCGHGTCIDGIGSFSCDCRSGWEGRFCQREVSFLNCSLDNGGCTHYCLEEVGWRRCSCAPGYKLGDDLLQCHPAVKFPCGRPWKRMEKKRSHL
For experiment [8], the target named is T6, Tissue Plasminogen Activator (t-PA). Briefly: t-PA inhibition assay (Ki, Example 5). It counts as biochemical. Particulars: read-out: Ki t-PA. As for the experimental part: as §4

T6 sequence (P00750 36-562): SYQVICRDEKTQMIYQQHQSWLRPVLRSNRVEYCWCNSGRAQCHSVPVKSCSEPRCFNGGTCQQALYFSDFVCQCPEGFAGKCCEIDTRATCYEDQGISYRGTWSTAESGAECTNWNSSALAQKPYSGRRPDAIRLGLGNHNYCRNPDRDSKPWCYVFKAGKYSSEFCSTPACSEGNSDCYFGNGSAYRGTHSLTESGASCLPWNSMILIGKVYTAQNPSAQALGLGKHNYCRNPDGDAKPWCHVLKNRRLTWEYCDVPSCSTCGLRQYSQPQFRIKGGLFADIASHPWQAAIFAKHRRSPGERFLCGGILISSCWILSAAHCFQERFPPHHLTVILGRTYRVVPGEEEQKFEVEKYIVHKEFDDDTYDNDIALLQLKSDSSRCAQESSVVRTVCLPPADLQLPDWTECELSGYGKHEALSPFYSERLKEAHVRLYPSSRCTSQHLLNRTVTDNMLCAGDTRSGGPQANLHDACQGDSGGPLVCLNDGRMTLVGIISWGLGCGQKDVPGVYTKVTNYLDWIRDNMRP
T8 sequence (P06868 584-812 limits assumed): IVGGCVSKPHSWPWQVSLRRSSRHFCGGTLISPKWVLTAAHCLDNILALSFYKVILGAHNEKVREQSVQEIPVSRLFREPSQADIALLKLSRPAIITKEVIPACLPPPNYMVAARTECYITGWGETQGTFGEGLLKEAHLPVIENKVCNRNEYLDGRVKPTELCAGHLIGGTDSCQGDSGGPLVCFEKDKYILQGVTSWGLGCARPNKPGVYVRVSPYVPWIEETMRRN
T8 sequence (P06868 104-583 limits assumed): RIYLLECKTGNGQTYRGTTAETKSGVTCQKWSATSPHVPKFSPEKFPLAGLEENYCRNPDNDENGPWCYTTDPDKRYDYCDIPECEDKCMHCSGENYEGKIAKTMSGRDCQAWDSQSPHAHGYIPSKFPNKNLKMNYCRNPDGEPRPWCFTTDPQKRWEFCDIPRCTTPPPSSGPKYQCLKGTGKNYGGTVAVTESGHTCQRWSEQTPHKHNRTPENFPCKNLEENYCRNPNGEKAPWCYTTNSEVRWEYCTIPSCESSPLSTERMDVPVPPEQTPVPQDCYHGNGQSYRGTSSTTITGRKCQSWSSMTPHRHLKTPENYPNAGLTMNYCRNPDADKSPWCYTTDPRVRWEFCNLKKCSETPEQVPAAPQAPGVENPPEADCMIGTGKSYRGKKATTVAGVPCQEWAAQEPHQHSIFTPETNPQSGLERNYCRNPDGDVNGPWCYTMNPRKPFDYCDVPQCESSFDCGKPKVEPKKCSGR
T5 sequence (P00743 234-492 limits assumed): as the sequence (P00743 234-492 limits assumed) above
T5 sequence (P00743 41-180 limits assumed): as the sequence (P00743 41-180 limits assumed) above
Sequence of tryptase (Q15661 31-275): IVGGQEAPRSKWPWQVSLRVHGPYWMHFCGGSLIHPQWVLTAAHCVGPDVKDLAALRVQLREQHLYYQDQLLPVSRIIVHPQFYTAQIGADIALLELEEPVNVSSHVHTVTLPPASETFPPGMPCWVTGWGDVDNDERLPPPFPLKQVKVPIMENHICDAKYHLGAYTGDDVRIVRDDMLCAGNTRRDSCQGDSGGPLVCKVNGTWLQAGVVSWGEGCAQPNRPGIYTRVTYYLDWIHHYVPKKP
Sequence of Factor XI (P03951 388-625 limits assumed): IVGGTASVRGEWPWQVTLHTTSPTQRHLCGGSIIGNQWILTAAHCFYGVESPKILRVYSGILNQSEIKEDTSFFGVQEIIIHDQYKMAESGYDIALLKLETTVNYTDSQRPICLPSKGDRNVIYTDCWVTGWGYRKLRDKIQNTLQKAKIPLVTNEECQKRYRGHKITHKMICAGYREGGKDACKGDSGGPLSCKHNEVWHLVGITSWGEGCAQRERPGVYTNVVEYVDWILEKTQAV
Sequence of Factor XI (P03951 19-387 limits assumed): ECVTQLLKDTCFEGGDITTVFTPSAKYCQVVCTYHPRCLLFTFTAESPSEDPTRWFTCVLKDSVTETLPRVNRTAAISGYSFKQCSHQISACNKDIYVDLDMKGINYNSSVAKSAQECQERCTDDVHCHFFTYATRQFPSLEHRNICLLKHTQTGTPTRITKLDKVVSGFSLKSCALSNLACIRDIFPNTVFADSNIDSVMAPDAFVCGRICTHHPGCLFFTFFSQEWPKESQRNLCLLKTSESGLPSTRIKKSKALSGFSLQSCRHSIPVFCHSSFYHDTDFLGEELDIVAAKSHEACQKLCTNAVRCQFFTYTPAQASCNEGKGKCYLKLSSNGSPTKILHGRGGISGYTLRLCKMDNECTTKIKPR
Sequence of factor VII (P08709 213-466 limits assumed): as the sequence (P08709 213-466 limits assumed) above
Sequence of factor VII (P08709 61-212 limits assumed): as the sequence (P08709 61-212 limits assumed) above
Sequence of factor VII (P13726 33-295 partner): as the sequence (P13726 33-295 partner) above

Turning to `N=C(N)NCCC[C@H](NC(=O)[C@@H]1CCN2CC[C@@](N)(Cc3ccccc3)C(=O)N12)C(=O)Nc1ccc([N+](=O)[O-])cc1` [Structure 11b], the “Activity compared to the control (D)FPR-PNA” value in experiment [1] came out at 1.38; on bovine thrombin (thrombin, ratio of kcat/KM), 0.76. The kcat at bovine thrombin (substrate hydrolysis, pH 8.4 Tris, 37° C.) came out at 50 s⁻¹.
`N=C(N)NCCC[C@H](NC(=O)[C@@H]1CCCN1C(=O)[C@H](N)Cc1ccccc1)C(=O)CCl` [PPACK, reference compound]: the IC50 against FVIIa and TF complex was found to be 200 nM; at bovine trypsin, 212 nM; against bovine factor Xa, 165 nM; in experiment [2], 106 nM; against urokinase [3], […]; against Plasmin [4], 699 nM. Also, the PT was 15 s in the experiment with control plasma (Concentration 500 pM); 18 s with control plasma (Concentration 1 nM); 22 s with control plasma (Concentration 10 nM); 25 s with control plasma (Concentration 20 nM); 28 s with control plasma (Concentration 40 nM); 30 s in the experiment with control plasma (Concentration 60 nM). Besides, in the experiment with control plasma (Concentration 80 nM), the PT turned out to be 31 s.
As to `N=C(N)NCCC[C@H](NC(=O)[C@@H]1CC[C@@H]2CC[C@@](N)(Cc3ccccc3)C(=O)N21)C(=O)c1nc2ccccc2s1` [Structure 29b], the inhibition constant (Ki) on Factor XI was 75.3 nM; at trypsin it was 0.2 nM and 0.23 nM; on urokinase [5] it was 335 nM; at factor X it was 17 nM; on factor VII it was 200 nM; at Plasmin [6] it was 251 nM. For the same molecule, the Ki was determined as 9 nM at tryptase, 0.085 nM on thrombin, 1250 nM in experiment [7] and 92.9 nM in [8].
